Where a SMILES comes first, the peptide text is derived from it.
Tested on: S. aureus (ATCC CRM 6538)
Test: SYTOX Green dye uptake membrane permeability assay
Assay type: cell-based, Staphylococcus aureus
Settings: 4 μM peptide, 2 h
Procedure: Bacteria were inoculated into TSB medium (Gram-positive bacteria) or LB medium (Gram-negative bacteria) at 37 °C overnight, and then sub-cultured at 37 °C for about 2.5 h. Subsequently, the cell cultures were centrifuged at 1000× g at 4 °C for 10 min to collect bacteria cells at the bottom. After the cells were washed twice with 5% TSB or 5% LB in 0.85% NaCl solution, they were resuspended with 5% TSB or 5% LB in 0.85% NaCl solution to obtain a cell concentration of 1 × 10^8 CFU /mL by measuring the optical density (OD) value at 590 nm (Gram-positive bacteria: 0.68–0.72, Gram-negative bacteria: 0.65–0.7). The cell suspensions were then mixed with peptides at a range of concentrations, according to the MIC of antimicrobial assays, in a black 96 well plate and incubated for 2 h at 37 °C. After the incubation, the cells were stained with SYTOX^TM Green Nucleic Acid Stain (Thermo Fisher Scientific, Waltham, MA, USA) dissolved in 5% TSB in 0.85% NaCl to a final concentration of 5 μM and placed in a shaking incubator for 5 min avoiding from light. Bacterial cells treated with 16 μM melittin were used as positive control. The fluorescence intensity was measured with a Synergy HT plate reader (BioTek, USA) at excitation and emission wavelengths of 485 and 528 nm, respectively.

Compound: CC[C@H](C)[C@H](NC(=O)[C@H](CCCCN)NC(=O)[C@@H](NC(=O)[C@H](CO)NC(=O)[C@H](CC(N)=O)NC(=O)[C@H](Cc1c[nH]c2ccccc12)NC(=O)[C@H](CC(C)C)NC(=O)CN)[C@@H](C)CC)C(=O)N[C@@H](C)C(=O)NCC(=O)N[C@@H](CCCCN)C(=O)N[C@@H](CCCCN)C(=O)N[C@@H](CC(C)C)C(=O)N[C@@H](Cc1ccccc1)C(=O)N[C@H](C(=O)N[C@@H](CC(N)=O)C(=O)N[C@H](C(=O)N[C@@H](CC(C)C)C(=O)N[C@@H](CC(=O)O)C(=O)N[C@@H](CCCCN)C(=O)N[C@H](C(=O)N[C@@H](CCCNC(=N)N)C(=O)N[C@H]1CSSC[C@@H](C(=O)O)NC(=O)CNC(=O)CNC(=O)[C@H](C)NC(=O)[C@H](C(C)C)NC(=O)[C@H](CCCCN)NC1=O)[C@@H](C)CC)C(C)C)C(C)C [GL-29] (HELM PEPTIDE1{G.L.W.N.S.I.K.I.A.G.K.K.L.F.V.N.V.L.D.K.I.R.C.K.V.A.G.G.C}$PEPTIDE1,PEPTIDE1,23:R3-29:R3$$$V2.0; N-terminus and C-terminus assumed; bridges inferred)
- membrane permeabilisation (SYTOX Green uptake): 100%
